These results are taken from US7192983B2, “N-protected/N-substituted-beta-amino hydroxy sulfonates” (G.D. Searle & Co., priority 1995, dated 2007).

A short description of this data set: Determination of storage stability at ambient temperature (purity by HPLC). It is filed as physicochemical. As to the method:
2S-[Bis (phenylmethyl) amino]-1-hydroxy-3-phenylpropyl sulfonic acid, sodium salt (5 grams) was treated with stirring with an aqueous solution of 5 grams of potassium carbonate in 50 mL of water at room temperature. The aqueous solution was extracted once with a 50 mL portion of ethyl acetate. The organic solvent solutions were combined and removed under reduced pressure. The residue was dissolved in the tetrahydrofuran (THF), filtered through a cotton filter plug and the solvent removed under reduced pressure. […] The samples were placed on the column diluted in 90% hexane, 5% isopropanol and 5% tert-butylmethyl ether.
The experiment extended through 61 days with purity determinations made on days 0 (t=0), 3 (t=3), 6 (t=6), 18 (t=18) and 61 (t=61). A sample of the salt was treated with aqueous potassium carbonate and extracted with ethyl acetate on day 0. The ethyl acetate was removed under reduced pressure to provide the aldehyde and this sample was used as a t=0 […] reference standard for the stability determination (“Aldehyde Sample”). The t=0 sample of the aldehyde was then stored at ambient temperature in a capped, brown glass bottle side by side with the stored sample of the salt. The purity of the salt was then measured on days 3 (t=3), 8 (t=8), 15 (t=15) and 21 (t=21).

Each structure is given as a SMILES string.

Take `O=C[C@H](Cc1ccccc1)N(Cc1ccccc1)Cc1ccccc1` [Aldehyde Sample, 2S-[bis(phenylmethyl)amino]-3-phenylpropanal]: the “% aldehyde remaining” value is, setting by setting: (day 8, stored at ambient temperature in capped brown glass bottle) 64%; (day 15, stored at ambient temperature in capped brown glass bottle) 23%; (day 18, stored at ambient temperature in capped brown glass bottle) 10%.
